Experimental data as given in patent US6726936B1, “Antimicrobial agents” (Sumitomo Metal Mining Co., Ltd., priority 1998, dated 2004).

How the values were obtained:
[1] = upper limit value of the silver-chloro complex salts in sodium chloride-water-ethanol; type: physicochemical; conditions: water and ethanol mixed in the volume ratio of 32:68, 3%(w/v) of sodium chloride
Source text: For example, in the system of silver-chloro complex salts (sodium tetrachloroargentate (I))-sodium chloride-water-ethanol, the upper limit value of the silver-chloro complex salts is 46 ppm when water and ethanol was mixed in the volume ratio of 32:68 and 3%(w/v) of sodium chloride was contained therein.

[2] = NaCl concentration required to stabilize silver-chloro complex salts; type: physicochemical; conditions: for NaCl CONCENTRATION REQUIRED TO STABILIZE SILVER-CHLORO COMPLEX SALTS IN AQUEOUS SOLUTION OF 70% (w/v) ETHANOL (b) / NaCl CONCENTRATION REQUIRED TO STABILIZE SILVER-CHLORO COMPLEX SALTS IN WATER (AQUEOUS SOLUTION) (a): 25° C.
Procedure: The concentration of the chloride in the second antimicrobial agent in accordance with the present invention is not particularly limited, but it is preferable that the chloride be added in a predetermined concentration in accordance with the concentration of the silver-chloro complex salts contained in the antimicrobial agent. […] Specifically, the required concentration of the chloride to stabilize the silver-chloro complex salts (at 25° C.) has the following correlation in water or in a 70%(w/v) ethanol aqueous solution.

[3] = silver ion concentration 0.183 ppm
[4] = silver ion concentration 0.410 ppm
[5] = silver ion concentration 2.600 ppm
[6] = silver ion concentration 8.697 ppm
[7] = silver ion concentration 42.189 ppm

SMILES: [Cl][Ag-3]([Cl])([Cl])[Cl].[Na+].[Na+].[Na+] [SILVER-CHLORO COMPLEX SALTS, sodium tetrachloroargentate (I)]
- upper limit value of the silver-chloro complex salts [1]: 46 ppm
- ratio of NaCl concentration required in 70% ethanol to that required in water [2, 3]: 0.044
- NaCl CONCENTRATION REQUIRED TO STABILIZE SILVER-CHLORO COMPLEX SALTS IN AQUEOUS SOLUTION OF 70% (w/v) ETHANOL (b) [2, 3]: 0.128 g/L
- NaCl CONCENTRATION REQUIRED TO STABILIZE SILVER-CHLORO COMPLEX SALTS IN WATER (AQUEOUS SOLUTION) (a) [2, 3]: 2.925 g/L
- ratio of NaCl concentration required in 70% ethanol to that required in water [2, 4]: 0.049
- NaCl CONCENTRATION REQUIRED TO STABILIZE SILVER-CHLORO COMPLEX SALTS IN AQUEOUS SOLUTION OF 70% (w/v) ETHANOL (b) [2, 4]: 0.287 g/L
- NaCl CONCENTRATION REQUIRED TO STABILIZE SILVER-CHLORO COMPLEX SALTS IN WATER (AQUEOUS SOLUTION) (a) [2, 4]: 5.850 g/L
- ratio of NaCl concentration required in 70% ethanol to that required in water [2, 5]: 0.062
- NaCl CONCENTRATION REQUIRED TO STABILIZE SILVER-CHLORO COMPLEX SALTS IN AQUEOUS SOLUTION OF 70% (w/v) ETHANOL (b) [2, 5]: 1.820 g/L
- NaCl CONCENTRATION REQUIRED TO STABILIZE SILVER-CHLORO COMPLEX SALTS IN WATER (AQUEOUS SOLUTION) (a) [2, 5]: 29.250 g/L
- ratio of NaCl concentration required in 70% ethanol to that required in water [2, 6]: 0.107
- NaCl CONCENTRATION REQUIRED TO STABILIZE SILVER-CHLORO COMPLEX SALTS IN AQUEOUS SOLUTION OF 70% (w/v) ETHANOL (b) [2, 6]: 6.088 g/L
- NaCl CONCENTRATION REQUIRED TO STABILIZE SILVER-CHLORO COMPLEX SALTS IN WATER (AQUEOUS SOLUTION) (a) [2, 6]: 57.038 g/L
- ratio of NaCl concentration required in 70% ethanol to that required in water [2, 7]: 0.262
- NaCl CONCENTRATION REQUIRED TO STABILIZE SILVER-CHLORO COMPLEX SALTS IN AQUEOUS SOLUTION OF 70% (w/v) ETHANOL (b) [2, 7]: 29.532 g/L
- NaCl CONCENTRATION REQUIRED TO STABILIZE SILVER-CHLORO COMPLEX SALTS IN WATER (AQUEOUS SOLUTION) (a) [2, 7]: 112.905 g/L
